In general, IC50 refers to the concentration that inhibits the measured activity by half. For orientation: pIC50 means the IC50 on a negative log10 scale, so that one unit is a factor of ten. Lower therefore signals a large IC50. What is called EC50 is the concentration at which the effect is half-maximal. What is called Papp B→A is how fast a substance crosses the layer from the basolateral side. By chromatographic logD is commonly meant lipophilicity estimated from chromatographic retention. Usually solubility (thermodynamic) stands for solubility found after equilibrating the solid with the medium. Usually Papp A→B stands for the apparent permeability from the apical to the basolateral side of a cell layer.

The values that follow come from ChEMBL document CHEMBL4330129 (Bioorg Med Chem, 2019).

Molecules are shown by their SMILES. ≈ marks a conversion by molar mass, not a printed value. Calls of active or inactive are those of the source. No cut-off for these calls is given here.

Data set [1] relates to Kelch-like ECH-associated protein 1 (Homo sapiens), Q14145 [C151S]. In words: Binding affinity to human N-terminal His6-tagged Keap1 C151S mutant (35 to 182 residues) expressed in baculovirus infected Sf9 insect cells assessed as cysteine-compound adduct formation at 15-fold molar excess measured after 1 hr by RP-LC/MS/MS analysis.
Sequence of Kelch-like ECH-associated protein 1 (Homo sapiens), Q14145 [C151S] (Q14145 whole entry C151S, the tested form may be a part): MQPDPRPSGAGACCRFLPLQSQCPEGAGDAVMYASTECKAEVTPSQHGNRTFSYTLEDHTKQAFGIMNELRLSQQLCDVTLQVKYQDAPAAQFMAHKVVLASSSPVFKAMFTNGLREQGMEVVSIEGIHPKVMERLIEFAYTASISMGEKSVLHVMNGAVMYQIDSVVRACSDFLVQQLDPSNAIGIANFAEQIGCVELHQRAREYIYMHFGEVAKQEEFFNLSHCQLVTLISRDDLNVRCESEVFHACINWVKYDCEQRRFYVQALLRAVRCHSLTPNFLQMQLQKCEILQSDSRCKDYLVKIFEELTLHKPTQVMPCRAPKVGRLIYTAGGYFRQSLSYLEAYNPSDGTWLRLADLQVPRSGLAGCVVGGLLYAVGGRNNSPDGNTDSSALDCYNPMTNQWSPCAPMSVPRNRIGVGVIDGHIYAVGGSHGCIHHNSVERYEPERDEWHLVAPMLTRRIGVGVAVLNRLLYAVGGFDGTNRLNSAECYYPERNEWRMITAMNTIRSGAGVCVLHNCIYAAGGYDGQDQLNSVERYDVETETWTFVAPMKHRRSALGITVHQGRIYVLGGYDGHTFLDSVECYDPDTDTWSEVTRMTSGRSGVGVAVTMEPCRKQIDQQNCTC
Data set [2] is described as follows: Kinetic solubility of the compound at pH 7.4 by CLND method. It is filed as physicochemical. As to conditions: buffer, read-out: Kinetic_solubility.
In data set [3] the target is BACH1/MafK (Homo sapiens, UniProt O14867+O60675). The data set can be described thus: Inhibition of Bach1-Mafk interaction (unknown origin) by luciferase reporter gene based enzyme fragment complementation assay. It is filed as protein assay.
Sequence of BACH1/MafK (O60675 whole entry, the tested form may be a part): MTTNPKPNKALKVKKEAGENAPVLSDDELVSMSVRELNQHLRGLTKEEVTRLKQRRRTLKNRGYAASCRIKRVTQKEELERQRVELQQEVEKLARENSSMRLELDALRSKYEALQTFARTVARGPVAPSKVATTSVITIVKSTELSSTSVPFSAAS
Sequence of BACH1/MafK (O14867 whole entry, the tested form may be a part): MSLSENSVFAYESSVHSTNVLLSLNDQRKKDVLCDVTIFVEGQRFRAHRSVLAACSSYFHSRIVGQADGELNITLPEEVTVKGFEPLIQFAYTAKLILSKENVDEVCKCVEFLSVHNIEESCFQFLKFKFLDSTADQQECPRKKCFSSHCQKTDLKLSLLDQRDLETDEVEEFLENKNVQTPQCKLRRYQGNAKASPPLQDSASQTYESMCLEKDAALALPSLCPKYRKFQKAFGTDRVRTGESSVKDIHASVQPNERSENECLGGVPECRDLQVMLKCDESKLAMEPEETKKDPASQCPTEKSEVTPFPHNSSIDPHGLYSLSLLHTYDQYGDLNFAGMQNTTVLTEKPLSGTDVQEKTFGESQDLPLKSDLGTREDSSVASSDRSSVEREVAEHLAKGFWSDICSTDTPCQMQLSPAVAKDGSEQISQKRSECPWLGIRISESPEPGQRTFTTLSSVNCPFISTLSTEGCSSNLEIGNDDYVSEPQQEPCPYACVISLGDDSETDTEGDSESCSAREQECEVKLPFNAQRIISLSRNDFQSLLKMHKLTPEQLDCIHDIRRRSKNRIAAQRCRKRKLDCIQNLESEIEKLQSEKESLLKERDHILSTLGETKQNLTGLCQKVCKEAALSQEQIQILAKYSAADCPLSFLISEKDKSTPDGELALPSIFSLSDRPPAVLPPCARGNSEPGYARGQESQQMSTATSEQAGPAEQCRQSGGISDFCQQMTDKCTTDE
Data set [4] concerns the target Kelch-like ECH-associated protein 1 (Homo sapiens) (UniProt Q14145). The data set can be described thus: Binding affinity to wild-type human N-terminal His6-tagged Keap1 (35 to 178 residues) expressed in baculovirus infected Sf9 insect cells assessed as cysteine-compound adduct formation at 15-fold molar excess measured after 1 hr by RP-LC/MS/MS analysis.
Data set [5] in a line: Binding affinity to FLAG/His-tagged Keap1 (unknown origin)/biotinylated full-length FLAG/His/Tev/Avi-tagged Cul3 (unknown origin) expressed in baculovirus infected Sf9 insect cells measured after 1 hr by TR-FRET assay. More on the design: species or system Homo sapiens. In general terms: Time-resolved FRET reads energy transfer from a long-lived donor to a nearby acceptor.

Data set [6] is described as follows: (§1) Activation of Keap1/Cul3/Nrf2 in human BEAS2B cells assessed as increase in NQO1 levels measured after 48 hrs. It is filed as cell-based. To be noted: BEAS-2B.
Data set [7] in a line: Stability of the compound at 23 degC using crystalline solid sample measured >3 years by 1H-NMR analysis. The class given is physicochemical.
Data set [8] concerns Mus musculus. The data set can be described thus: Antioxidant activity in C57BL/6J mouse model of cigarette smoking-induced oxidative stress assessed as inhibition of total cell infiltration at 0.1 to 100 umol/kg, po dosed 24 hrs prior to cigarette smoking followed by qd dosing with cigarette smoking for 3 days by Wright-Giemsa staining based hemocytometry. It is filed as functional, organism-based.

Data set [9] addresses Keap1/Nrf2 (Homo sapiens, UniProt Q14145+Q16236). In words: Binding affinity to FLAG/His-tagged Keap1 (unknown origin)/biotinylated full-length FLAG/His/Tev/Avi-tagged NRF2 (unknown origin) expressed in baculovirus infected Sf9 insect cells measured after 1 hr by TR-FRET assay.
The nature of data set [10]: Drug metabolism in rat assessed as (2S)-2-amino-5-[[(1R)-2-(carboxymethylamino)-1-[3-[[2-(dimethylamino)-3,4-dioxo-cyclobuten-1-yl]-methyl-amino]propylcarbamothioylsulfanylmethyl]-2-oxo-ethyl]amino]-5-oxo-pentanoic acid formation at 2 mg/kg, po. To be noted: in vivo. It is filed as ADME, organism-based.
The nature of data set [11]: Stability of the compound at 23 degC using crystalline solid sample measured >3 years by LC/MS analysis. It is filed as physicochemical.
A short description of data set [12]: Apparent permeability across basolateral to apical side in MDCK-MDR1. The class given is ADME, cell-based, Canis lupus familiaris. To be noted: dog.
A short description of data set [13]: Lipophilicity, log D of the compound at pH 7.4 by chromatographic method. To be noted: buffer. It is filed as physicochemical.
Data set [14] in a line: Drug metabolism in rat assessed as (2R)-2-acetamido-3-[3-[[2-(dimethylamino)-3,4-dioxo-cyclobuten-1-yl]-methyl-amino]propylcarbamothioylsulfanyl]propanoic acid formation at 2 mg/kg, po. As to conditions: in vivo. The class given is ADME, organism-based.
Data set [15] can be described thus: Solubility of the compound in FaSSIF at pH 6.5 using solid sample. It is filed as physicochemical.
Data set [16] is described as follows: Apparent permeability across apical to basolateral side in MDCK-MDR1. The class given is ADME, cell-based, Canis lupus familiaris. As to conditions: dog.
Data set [17] deals with Mus musculus. The data set can be described thus: Antioxidant activity in po dosed C57BL/6J mouse model of cigarette smoking-induced oxidative stress assessed as inhibition of neutrophil infiltration dosed 24 hrs prior to cigarette smoking followed by qd dosing with cigarette smoking for 3 days by Wright-Giemsa staining based hemocytometry. The class given is functional, organism-based.

Data set [18] concerns Mus musculus. The data set can be described thus: Antioxidant activity in C57BL/6J mouse model of cigarette smoking-induced oxidative stress assessed as inhibition of mononuclear cell infiltration at 0.1 to 100 umol/kg, po dosed 24 hrs prior to cigarette smoking followed by qd dosing with cigarette smoking for 3 days by Wright-Giemsa staining based hemocytometry. The class given is functional, organism-based.

The species named for data set [19] is Homo sapiens. The description is as §1. The class given is cell-based.
Data set [20] is filed under the species Homo sapiens. In words: Activation of Keap1/Cul3/Nrf2 in NHBE cells assessed as induction of HO-1 gene expression at 10 uM after 24 hrs by RT-PCR analysis relative to SFN. It is filed as cell-based.
The test system of data set [21] is Mus musculus. In words: Antioxidant activity in C57BL/6J mouse model of cigarette smoking-induced oxidative stress assessed as inhibition of neutrophil infiltration at 0.1 to 100 umol/kg, po dosed 24 hrs prior to cigarette smoking followed by qd dosing with cigarette smoking for 3 days by Wright-Giemsa staining based hemocytometry. The class given is functional, organism-based.

Sequence of Kelch-like ECH-associated protein 1 (Homo sapiens) (Q14145 whole entry, the tested form may be a part): as the sequence (Q14145 whole entry C151S, the tested form may be a part) above, with S151C counted along it
Sequence of Keap1/Nrf2 (Q16236 whole entry): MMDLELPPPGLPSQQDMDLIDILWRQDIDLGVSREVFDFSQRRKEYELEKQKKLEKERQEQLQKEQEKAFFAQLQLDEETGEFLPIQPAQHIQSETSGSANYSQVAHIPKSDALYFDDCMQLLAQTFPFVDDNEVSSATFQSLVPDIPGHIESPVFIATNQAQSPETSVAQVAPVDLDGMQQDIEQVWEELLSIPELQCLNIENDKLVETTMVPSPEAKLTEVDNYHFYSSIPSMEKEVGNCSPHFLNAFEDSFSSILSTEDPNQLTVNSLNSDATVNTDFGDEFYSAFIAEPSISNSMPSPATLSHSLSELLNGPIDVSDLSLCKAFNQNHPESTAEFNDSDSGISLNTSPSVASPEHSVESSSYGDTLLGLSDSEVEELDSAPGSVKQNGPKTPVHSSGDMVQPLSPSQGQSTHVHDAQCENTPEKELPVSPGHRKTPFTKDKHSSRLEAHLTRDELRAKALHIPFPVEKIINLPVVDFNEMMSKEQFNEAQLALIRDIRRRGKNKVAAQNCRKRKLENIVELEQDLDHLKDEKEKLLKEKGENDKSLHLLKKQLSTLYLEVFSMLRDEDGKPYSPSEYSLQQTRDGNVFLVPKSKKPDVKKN
Sequence of Keap1/Nrf2 (Q14145 whole entry): as the sequence (Q14145 whole entry C151S, the tested form may be a part) above, with S151C counted along it

With `C[S+]([O-])CCCCN=C=S` (racemic) [SULFORAPHANE], the result in [1] and in data set [4] was Active. In addition, the solubility kinetic in [2] was 271 µM (≈ 48 µg/mL). For the same molecule, in data set [3], the IC50 is 15.8 µM. The molecule also came in with a pIC50 in [5] of under 4. The EC50 in data set [6] was 1.58 to 2.09 µM.
As to `CN(C)c1c(N(C)CCCN=C=S)c(=O)c1=O`, the result in data set [1] and in data set [4] was Active. Further, the Stability result in [7] and in [11] was “Stable” throughout. Also, the solubility kinetic in [2] is at least 394 µM. The inhibition result in data set [8], in [18] and in data set [21] was “Active” each time. Besides, the IC50 is over 100 µM in data set [9] and 3.16 µM in data set [3]. In addition, the Drug metabolism result in data set [10] and in [14] was “Metabolite_Detected” in each case. Moreover, in [12], the Papp B→A was 7.67 ×10⁻⁶ cm/s. The molecule also gave a chromatographic logD in data set [13] of 2.14 to 2.39. Also, in data set [15], the solubility (thermodynamic) came to 8000 µg/mL (≈ 31.6 mM). Also, the Papp A→B in data set [16] was found to be 12.5 ×10⁻⁶ cm/s. For the same molecule, the inhibition entry in data set [17] is “Dose-dependent effect”. Besides, in [5], the negative-log IC50 (pIC50) is on record as 4.3. Further, the EC50 in data set [6] is 1.58 to 1.66 µM. Also, the Activity result in data set [19] was “Dose-dependent effect”. Further, the fold change (FC) in [20] is 24.9 to 25.
